target: PHGDH (Homo sapiens (Human), UniProt O43175); assay: PHGDH inhibition, coupled assay with PSAT1/PSPH and diaphorase/resazurin readout; assay type: biochemical; details: Table E9; mixture with PSAT1, PSPH; diaphorase/resazurin reporter
Sequence (O43175 whole entry): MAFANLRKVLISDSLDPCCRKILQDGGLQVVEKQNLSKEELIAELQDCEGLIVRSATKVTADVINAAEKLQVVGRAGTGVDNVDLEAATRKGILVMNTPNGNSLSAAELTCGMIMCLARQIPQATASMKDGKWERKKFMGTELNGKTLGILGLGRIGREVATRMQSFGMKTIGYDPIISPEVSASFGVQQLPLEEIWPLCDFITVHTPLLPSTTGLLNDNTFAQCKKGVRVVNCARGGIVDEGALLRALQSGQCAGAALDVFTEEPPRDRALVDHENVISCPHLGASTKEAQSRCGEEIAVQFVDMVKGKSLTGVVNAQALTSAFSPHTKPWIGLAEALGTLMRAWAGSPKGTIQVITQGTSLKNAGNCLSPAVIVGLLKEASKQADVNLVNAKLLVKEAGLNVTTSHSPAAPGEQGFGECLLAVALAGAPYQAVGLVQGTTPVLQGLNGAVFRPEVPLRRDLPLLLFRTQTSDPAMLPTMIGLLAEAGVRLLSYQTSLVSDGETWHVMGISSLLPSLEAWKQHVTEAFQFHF
Method: Compounds of the invention were assayed for inhibition of the activity phosphoglycerate dehydrogenase (PHGDH). The compounds were assayed in a mixture comprising PHGDH, PSAT1, PSPH, NADH, and glutamate. Diaphorase and resazurin were used as a fluorescent reporter system.
In this endogenous pathway coupled assay, the production of NADH by PHGDH was measured through the diaphorasemediated reduction of resazurin (See, e.g., Chakraborty, S., Sakka, M., Kimura, T. & Sakka, K. “Characterization of a dihydrolipoyl dehydrogenase having diaphorase activity of Clostridium kluyveri.” BioscL Biotechnol. Biochem. 72, 982-988 (2008)).
PHGDH assay buffer contained 50 mM TEA pH 8.0, 10 mM MgCl2, 0.05% BSA, and 0.01% Tween-20. PHGDH enzyme buffer consisted of assay buffer with 20 nM PHGDH and 0.2 mg/mL diaphorase. PHGDH substrate buffer contained 0.3 mM NAD 1.25 mM glutamate, 0.1 mM 3-phosphoglycerate, 0.2 mM resazurin, 1 μM PSAT1, and 1 μM PSPH. qHTS was performed in 1536-well plates dispensed with a BioRAPTR FRD. Each well contained equal volumes of substrate buffer and assay buffer. Plates were read at 0 minutes and 20 minutes at room temperature with a ViewLux uHTS Microplate Imager (PerkinElmer). Follow-up assays were performed in black 384-well plates (Greiner) in 20 μL of enzyme buffer to which compounds were added in dose-response with an HP D300 digital dispenser (Hewlett-Packard), followed by addition of 20 μL of substrate buffer. Plates were incubated at room temperature (25° C.) and read at 0 and 20 minutes with a Spectramax M5 plate reader (Molecular Devices) in fluorescence intensity mode with a λex=550 nm and λem=600 nm (emission cutoff=590 nm).

| Compound | IC50 [µM] |
| --- | --- |
| Cc1cc(C)nc(NC(=S)N2CCN(c3ccc(C(F)(F)F)cc3Cl)CC2)c1 [Compound 212] | 5 to 10 |
| Cc1cc(C)nc(NC(=S)N2CCN(Cc3cccnc3)CC2)c1 [Compound 283] | ≥ 20 |
| Cc1cc(C)nc(NC(=S)N2CCN(c3ccc([N+](=O)[O-])cc3Cl)CC2)c1 [Compound 217] | 10 to 20 |
| Cc1ccnc(NC(=S)N2CCN(c3cc(F)cc(Cl)c3)CC2)c1 [Compound 141] | < 5 |
| COc1ccnc(NC(=S)N2CCN(c3cc(Cl)cc(Cl)c3)CC2)c1 [Compound 178] | 5 to 10 |
| Cc1cc2nc(NC(=S)N3CCN(c4cccc(C(F)(F)F)c4)CC3)[nH]c2cc1C [Compound 241] | ≥ 20 |
| Cc1cc(C)nc(NC(=S)N2CCN(c3cccc4ccncc34)CC2)c1 [Compound 149] | 10 to 20 |
| Cc1cc(C)nc(NC(=S)N2CCN(C3=Nc4ccccc4Oc4ccccc43)CC2)c1 [Compound 154] | ≥ 20 |
| Cc1cc(C)nc(NC(=S)N2CCN(c3ccc(Cl)cc3[N+](=O)[O-])CC2)c1 [Compound 218] | 5 to 10 |
| S=C(Nc1cc(Cl)ccn1)N1CCN(c2cccc(Cl)c2Cl)CC1 [Compound 226] | 10 to 20 |
| COc1ccnc(NC(=S)N2CCN(c3ccc(Cl)c(Cl)c3)CC2)c1 [Compound 182] | 5 to 10 |
| Cc1ccnc(NC(=S)N2CCN(c3ccc(O)cc3)CC2)c1 [Compound 13] | ≥ 20 |
| Cc1cc(C)nc(NC(=S)N2CCN(c3ccc(Cl)nn3)CC2)c1 [Compound 165] | ≥ 20 |
| Cc1cccc(CN2CCN(C(=S)Nc3cc(C)cc(C)n3)CC2)c1 [Compound 291] | < 5 |
| Cc1cc(C)nc(NC(=S)N2CCN(c3coc4ccccc34)CC2)c1 [Compound 86] | 10 to 20 |
| COc1ccnc(NC(=S)N2CCN(c3cccc(Cl)c3Cl)CC2)c1 [Compound 180] | 5 to 10 |
| Cc1cc(C)nc(NC(=S)N2CCN(c3cc(C(F)(F)F)nc(C)n3)CC2)c1 [Compound 153] | 10 to 20 |
| CCN1CCN(C(=S)c2ccc(O)cc2)CC1 [Compound 15] | ≥ 20 |
| Cc1cc(C)nc(NC(=S)N2CCN(Cc3cccc4ccccc34)CC2)c1 [Compound 168] | ≥ 20 |
| Cc1cc(C)nc(NC(=S)N2CCN([S+](=O)([O-])c3cccc(C(F)(F)F)c3)CC2)c1 [Compound 100] | < 5 |
| Cc1cc(C)nc(Nc2nnc(N3CCN(c4cccc(C(F)(F)F)c4)CC3)s2)c1 [Compound 125] | ≥ 20 |
| Cc1cc(C)nc(NC(=S)N2CCN(c3ncccn3)CC2)c1 [Compound 80] | ≥ 20 |
| Cc1cc(C)nc(NC(=S)N2CCN(c3cc4ccccc4cn3)CC2)c1 [Compound 145] | ≥ 20 |
| COc1cccc(NC(=S)N2CCN(c3cc(Cl)cc(Cl)c3)CC2)n1 [Compound 187] | ≥ 20 |
| Cc1cc(C)nc(NC(=S)N2CCN(Cc3ccc(C(F)(F)F)cc3)[C@@H](C)C2)c1 [Compound 297] | < 5 |
| Cc1cc(C)nc(NC(=S)N2CCN(c3ncccc3C(F)(F)F)CC2)c1 [Compound 113] | 10 to 20 |
| Cc1cc(C)nc(NC(=S)N2CCN(c3ccc(Cl)cc3[S+](C)(=O)[O-])CC2)c1 [Compound 115] | 10 to 20 |
| FC(F)(F)c1ccc(N2CCN(C(=S)Nc3ccccn3)CC2)cc1 [Compound 25] | 5 to 10 |

| Compound | IC50 [µM] |
| --- | --- |
| Cc1cc(C)nc(NC(=S)N2CCN(c3nsc4ccccc34)CC2)c1 [Compound 108] | 10 to 20 |
| Cc1cc(C)nc(NC(=S)N2CCN(c3ncccc3Cl)CC2)c1 [Compound 79] | 10 to 20 |
| Cc1cc(C)nc(NC(=S)N2CCN(Cc3ccc(C(F)(F)F)cc3)C(C)C2)c1 (stereo not drawn) [Compound 275] | < 5 |
| Cc1ccnc(NC(=S)N2CCN(c3ccc(C#N)cc3)CC2)c1 [Compound 10] | ≥ 20 |
| Cc1cc(C)nc(NC(=S)N2CCN(Cc3ccccc3F)CC2)c1 [Compound 288] | 10 to 20 |
| COc1ccnc(NC(=S)N2CCN(c3ccc4ccccc4n3)CC2)c1 [Compound 186] | 10 to 20 |
| COc1cccc(CN2CCN(C(=S)Nc3cc(C)cc(C)n3)CC2)c1 [Compound 290] | 10 to 20 |
| Cc1cc(C)nc(NC(=S)N2CCN(Cc3ccc(C(F)(F)F)c(Cl)c3)CC2)c1 [Compound 300] | 5 to 10 |
| Cc1cc(C)nc(NC(=S)N2CCN(c3ccc4cnccc4c3)CC2)c1 [Compound 148] | 10 to 20 |
| Cc1cc(C)cc(N2CCN(C(=S)Nc3cc(C)cc(C)n3)CC2)c1 [Compound 213] | 10 to 20 |
| Cc1cc(C)nc(NC(=S)N2CCN(c3cc(Br)cc(C(F)(F)F)c3)CC2)c1 [Compound 142] | 5 to 10 |
| Cc1cc(C)nc(NC(=S)N2CCN(c3ccc(F)c(Cl)c3)CC2)c1 [Compound 215] | 5 to 10 |
| Cc1cc(C)nc(NC(=S)N2CCN(c3ccc(F)cc3F)CC2)c1 [Compound 90] | 5 to 10 |
| Cc1cc(C)nc(NC(=S)N2CCN(c3ccc(F)c(F)c3)CC2)c1 [Compound 214] | 5 to 10 |
| Cc1cc(C)nc(NC(=S)N2CCN(c3ccc([N+](=O)[O-])c4cccnc34)CC2)c1 [Compound 123] | ≥ 20 |
| Cc1cc(C)nc(NC(=S)N2CCN(c3cccc(C(F)(F)F)n3)CC2)c1 [Compound 116] | 5 to 10 |
| Cc1cc(C)nc(NC(=S)N2CCN(c3ccccn3)CC2)c1 [Compound 77] | ≥ 20 |
| Cc1ccnc(NC(=S)N2CCN(c3ccc4ccccc4n3)CC2)c1 [Compound 177] | 10 to 20 |
| Cc1cc(C)nc(NC(=S)N2CCN(Cc3cccc(Cl)c3)CC2)c1 [Compound 284] | 10 to 20 |
| Cc1cc(C)nc(NC(=S)N2CCN(c3cc(Cl)cc(Cl)c3)CC2)c1 [Compound 65] | 5 to 10 |
| COc1ccnc(NC(=S)N2CCN(c3ccc(Cl)cc3Cl)CC2)c1 [Compound 181] | 10 to 20 |
| Cc1cc(C)nc(NC(=S)N2CCN(c3cc(Cl)c(Cl)c(Cl)c3)CC2)c1 [Compound 206] | ≥ 20 |
| Cc1cc(C)nc(NC(=S)N2CCN(c3cccc(OC(F)(F)F)c3)CC2)c1 [Compound 134] | 5 to 10 |
| Cc1ccnc(NC(=S)N2CCNCC2)c1 [Compound 53] | ≥ 20 |
| Cc1cc(C)nc(NC(=S)N2CCN(c3ccc4occc4c3)CC2)c1 [Compound 164] | 10 to 20 |
| O=C(Nc1cccc([S+](=O)([O-])Nc2ccccc2F)c1)c1cccs1 [Compound 245] | ≥ 20 |
| Cc1cc(C)nc(NC(=S)N2CC3CN(c4ncc(C(F)(F)F)cc4Cl)CC3C2)c1 (stereo not drawn) [Compound 225] | 10 to 20 |

Other lines, results leading:

| IC50 [µM] | Compound |
| --- | --- |
| 10 to 20 | Cc1ccc2nc(NC(=S)N3CCN(c4cccc(C(F)(F)F)c4)CC3)[nH]c2c1 [Compound 239] |
| ≥ 20 | Cc1ccnc(NC(=S)N2CC3CN(c4ccc(Cl)cc4C(F)(F)F)CC3C2)c1 (stereo not drawn) [Compound 224] |
| < 5 | COC(=O)c1ccnc(NC(=S)N2CCN(c3cccc(C(F)(F)F)c3)CC2)c1 [Compound 28] |
| < 5 | FC(F)(F)c1cccc(N2CCN(C(=S)Nc3cccnc3)CC2)c1 [Compound 30] |
| ≥ 20 | FC(F)(F)c1cccc(N2CCN(C(=S)Nc3cc[nH]n3)CC2)c1 [Compound 237] |
| ≥ 20 | Cc1ccnc(NC(=S)N[C@@H]2CCN(c3cccc(C(F)(F)F)c3)C2)c1 [Compound 42] |
| 10 to 20 | Cc1ccnc(NC(=S)N2CCN(c3cccc(C(F)(F)F)c3)CC2)n1 [Compound 126] |
| 10 to 20 | FC(F)(F)c1cccc(N2CCN(C(=S)Nc3nccc4cccnc34)CC2)c1 [Compound 204] |
| ≥ 20 | Cc1ccnc(NC(=S)N[C@H]2CCN(c3cccc(C(F)(F)F)c3)C2)c1 [Compound 43] |
| 5 to 10 | FC(F)(F)c1cccc(N2CCN(C(=S)Nc3cc(C(F)(F)F)ccn3)CC2)c1 [Compound 26] |
| 10 to 20 | Cc1ccnc(NC(=S)N2CCc3cc(C(F)(F)F)ccc3C2)c1 [Compound 61] |
| < 5 | Cc1cc(C)nc(NC(=S)N2CCCC(NC(=O)c3cccc(C(F)(F)F)c3)C2)c1 (stereo not drawn) [Compound 262, N-(1-((4,6-dimethylpyridin-2-yl)carbamothioyl)piperidin-3-yl)-3-(trifluoromethyl)benzamide] |
| ≥ 20 | Cc1ccnc(NC(=S)N2CCN(c3ccc(N)cc3)CC2)c1 [Compound 17] |
| 5 to 10 | Cc1ccnc(NC(=S)N2CCN(c3ccccc3C(F)(F)F)CC2)c1 [Compound 41] |
| 10 to 20 | Cc1ccnc(NC(=S)N2CC3CN(c4ncc(C(F)(F)F)cc4Cl)CC3C2)c1 (stereo not drawn) [Compound 227] |
| 5 to 10 | Cc1ccnc(NC(=S)NCCNc2cccc(C(F)(F)F)c2)c1 [Compound 22] |

| IC50 [µM] | Compound |
| --- | --- |
| ≥ 20 | Cc1cc(C)nc(NC(=C(C#N)C#N)N2CCN(c3cccc(C(F)(F)F)c3)CC2)c1 [Compound 96] |
| < 5 | Cc1cc(C)nc(NC(=S)N2CCCC(Nc3ccc(C(F)(F)F)cc3)C2)c1 (stereo not drawn) [Compound 252] |
| ≥ 20 | Cc1ccnc(N(C)C(=S)N2CCN(c3cccc(C(F)(F)F)c3)CC2)c1 [Compound 52] |
| 5 to 10 | COc1cccc(NC(=S)N2CCN(c3cccc(C(F)(F)F)c3)CC2)n1 [Compound 38] |
| ≥ 20 | Cc1ccnc(NC(=S)N2CCN(c3ccc(F)cc3)CC2)c1 [Compound 7] |
| 10 to 20 | Cc1ccnc(NC(=S)N2CCc3cccc(C(F)(F)F)c3C2)c1 [Compound 59] |
| 10 to 20 | Cc1ccnc(NC(=S)Nc2cccc(C(F)(F)F)c2)c1 [Compound 46] |
| ≥ 20 | N=C(NC(=S)N1CCN(c2cccc(C(F)(F)F)c2)CC1)c1ccccn1 [Compound 238] |
| 5 to 10 | Cc1ccnc(NC(=S)NC2CCCN(c3cccc(C(F)(F)F)c3)C2)c1 (stereo not drawn) [Compound 54] |
| ≥ 20 | O=C(Nc1cc2ccccc2cn1)N1CCN(c2cccc(C(F)(F)F)c2)CC1 [Compound 152] |
| 10 to 20 | Cc1ccnc(NC(=S)N2CCN(c3cccc(C(F)(F)F)c3)C[C@@H]2C)c1 [Compound 48] |
| 10 to 20 | Cc1cccc(N2CCN(C(=S)Nc3cc(C)ccn3)CC2)c1 [Compound 39] |
| 10 to 20 | Cc1ccnc(NC(=S)N2CCCN(c3cccc(C(F)(F)F)c3)CC2)c1 [Compound 49] |
| < 5 | COc1ccc2nc(NC(=S)N3CCN(c4cccc(C(F)(F)F)c4)CC3)[nH]c2c1 [Compound 243] |
| 5 to 10 | Cc1ccnc(NC(=S)N2CCCC(Nc3cccc(C(F)(F)F)c3)C2)c1 (stereo not drawn) [Compound 58] |
| ≥ 20 | CN(C)c1ccc2nc(NC(=S)N3CCN(c4cccc(C(F)(F)F)c4)CC3)sc2c1 [Compound 144] |
